Entries after “also recorded” stand apart in the source; their conditions may differ.
What was measured:
[1] = tested on: zebrafish embryos; test: Zebrafish embryonic development / WT morphology; type: in vivo, Danio rerio (zebrafish); settings: 3 dpf, drug from 6 hpf
Experimental: (§1) Figure 4. […] (N–P) Three categories of mpo transcription (N, normal; O, intermediate; P, severe) were defined based on the WISH results (three experiments). […] Scale bar equals 500 μm. Blue arrows indicate the pericardial edema, green arrows indicate tail shortening and curving, and red arrows indicate the FLT3-ITD AML mpo+ myeloid cells expansion. […] For all experiments: Zebrafish embryos were collected and kept in standard E3 medium at 28°C. Different concentrations of either drug were added to the E3 medium from 6 hr post fertilization (hpf) to 3 days post fertilization (dpf). Embryos treated with DMSO or 10 μM drug from 6 to 30 hpf were collected for mpo whole mount in situ hybridization (WISH) analysis. […] plasmid DNA containing FLT3/ITD sequence was microinjected into one-cell stage embryos, and the uninjected embryos were used as control. FLT3/ITD-injected embryos were treated with DMSO or 10 μM drug from 6 to 30 hpf.
(§2) Wild-type (WT) zebrafish were maintained under standard conditions, and embryos were staged as described ([He et al., 2014]). The study was approved by the Committee of the Use of Live Animals for Teaching and Research in The University of Hong Kong.

[2] = tested on: Ba/F3 FLT3 ITD + F691L; test: Ba/F3 cell viability, FLT3 ITD + F691L; type: cell-based; settings: Mus musculus, Ba/F3, 48 hr, ± SEM
Experimental: (§3) Stable Ba/F3 lines were generated by retroviral spinfection with the appropriate mutated plasmid as previously described ([Smith et al., 2012]).
(§4) Exponentially growing cells (5 × 10^3 cells per well) were plated in each well of a 96-well plate with 0.1 ml of RPMI 1640 + 10% (vol/vol) FCS containing the appropriate concentration of drug in triplicate, and cell viability was assessed after 48 hr as previously described ([Smith et al., 2012]). […] Log10-scale transformation of ratios, followed by conditional formatting using xcel spreadsheet software yielded the colored diagrams shown.
(§5) Mutations isolated in the screen were engineered into pMSCVpuroFLT3–ITD by QuikChange mutagenesis (Stratagene, La Jolla, CA) as previously described ([Smith et al., 2012]).

[3] = tested on: MV4;11 cells (FLT3-ITD homozygous); test: Cell proliferation/viability assay, MV4;11; type: cell-based; settings: Homo sapiens, 48 hr, ± SEM
Experimental: as §4

[4] = tested on: Ba/F3 FLT3 D835Y; test: Ba/F3 cell viability, FLT3 D835Y; type: cell-based; settings: Mus musculus, BaF3; Ba/F3, 48 hr, ± SEM
Experimental: as §3, §4, §5

[5] = tested on: FLT3/ITD-injected zebrafish embryos; test: Zebrafish FLT3/ITD-induced mpo+ myeloid cell expansion; type: in vivo, Danio rerio (zebrafish); settings: 10 μM, 6 to 30 hpf, read at 30 hpf
Experimental: as §1, §2

[6] = tested on: Ba/F3 FLT3 ITD + A848P; test: Ba/F3 cell viability, FLT3 ITD + A848P; type: cell-based; settings: Mus musculus, Ba/F3, 48 hr, ± SEM
Experimental: as §3, §4, §5

[7] = tested on: K562 cells (Bcr-Abl); test: Cell proliferation/viability assay, K562; type: cell-based; settings: Homo sapiens, 48 hr
Experimental: as §4

[8] = target: KIT (Homo sapiens, UniProt P10721); test: Reaction Biology Corp kinase assay at Km-ATP (Figure 1C), KIT
KIT, sequence (P10721 26-976): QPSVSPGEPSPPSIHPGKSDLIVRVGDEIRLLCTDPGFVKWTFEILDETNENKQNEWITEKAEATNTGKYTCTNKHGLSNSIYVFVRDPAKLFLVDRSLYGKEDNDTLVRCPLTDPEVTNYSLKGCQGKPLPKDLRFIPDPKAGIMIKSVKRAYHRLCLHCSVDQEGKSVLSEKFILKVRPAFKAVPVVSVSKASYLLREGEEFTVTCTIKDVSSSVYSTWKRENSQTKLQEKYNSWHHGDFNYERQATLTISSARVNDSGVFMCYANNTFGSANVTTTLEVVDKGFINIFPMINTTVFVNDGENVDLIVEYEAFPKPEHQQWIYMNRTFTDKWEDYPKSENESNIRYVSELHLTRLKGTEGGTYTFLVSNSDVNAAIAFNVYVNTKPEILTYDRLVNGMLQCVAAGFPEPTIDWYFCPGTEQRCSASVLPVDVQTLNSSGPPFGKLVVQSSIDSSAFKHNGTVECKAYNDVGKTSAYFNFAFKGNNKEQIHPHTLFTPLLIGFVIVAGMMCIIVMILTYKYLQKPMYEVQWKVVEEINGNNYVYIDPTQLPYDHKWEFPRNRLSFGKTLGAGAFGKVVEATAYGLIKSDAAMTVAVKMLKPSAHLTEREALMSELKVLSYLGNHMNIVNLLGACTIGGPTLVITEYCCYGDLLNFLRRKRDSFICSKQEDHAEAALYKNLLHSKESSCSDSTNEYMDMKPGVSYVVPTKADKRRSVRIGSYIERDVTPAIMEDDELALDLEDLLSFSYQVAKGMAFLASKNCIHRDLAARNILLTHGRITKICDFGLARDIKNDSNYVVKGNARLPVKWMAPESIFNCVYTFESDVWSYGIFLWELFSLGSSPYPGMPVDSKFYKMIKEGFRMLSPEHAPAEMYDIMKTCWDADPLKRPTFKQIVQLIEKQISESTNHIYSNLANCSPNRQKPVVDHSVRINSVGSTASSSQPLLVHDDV

[9] = target: PDGFRα (Homo sapiens, UniProt P16234); test: Reaction Biology Corp kinase assay at Km-ATP (Figure 1C), PDGFRα
PDGFRα, sequence (P16234 24-1089): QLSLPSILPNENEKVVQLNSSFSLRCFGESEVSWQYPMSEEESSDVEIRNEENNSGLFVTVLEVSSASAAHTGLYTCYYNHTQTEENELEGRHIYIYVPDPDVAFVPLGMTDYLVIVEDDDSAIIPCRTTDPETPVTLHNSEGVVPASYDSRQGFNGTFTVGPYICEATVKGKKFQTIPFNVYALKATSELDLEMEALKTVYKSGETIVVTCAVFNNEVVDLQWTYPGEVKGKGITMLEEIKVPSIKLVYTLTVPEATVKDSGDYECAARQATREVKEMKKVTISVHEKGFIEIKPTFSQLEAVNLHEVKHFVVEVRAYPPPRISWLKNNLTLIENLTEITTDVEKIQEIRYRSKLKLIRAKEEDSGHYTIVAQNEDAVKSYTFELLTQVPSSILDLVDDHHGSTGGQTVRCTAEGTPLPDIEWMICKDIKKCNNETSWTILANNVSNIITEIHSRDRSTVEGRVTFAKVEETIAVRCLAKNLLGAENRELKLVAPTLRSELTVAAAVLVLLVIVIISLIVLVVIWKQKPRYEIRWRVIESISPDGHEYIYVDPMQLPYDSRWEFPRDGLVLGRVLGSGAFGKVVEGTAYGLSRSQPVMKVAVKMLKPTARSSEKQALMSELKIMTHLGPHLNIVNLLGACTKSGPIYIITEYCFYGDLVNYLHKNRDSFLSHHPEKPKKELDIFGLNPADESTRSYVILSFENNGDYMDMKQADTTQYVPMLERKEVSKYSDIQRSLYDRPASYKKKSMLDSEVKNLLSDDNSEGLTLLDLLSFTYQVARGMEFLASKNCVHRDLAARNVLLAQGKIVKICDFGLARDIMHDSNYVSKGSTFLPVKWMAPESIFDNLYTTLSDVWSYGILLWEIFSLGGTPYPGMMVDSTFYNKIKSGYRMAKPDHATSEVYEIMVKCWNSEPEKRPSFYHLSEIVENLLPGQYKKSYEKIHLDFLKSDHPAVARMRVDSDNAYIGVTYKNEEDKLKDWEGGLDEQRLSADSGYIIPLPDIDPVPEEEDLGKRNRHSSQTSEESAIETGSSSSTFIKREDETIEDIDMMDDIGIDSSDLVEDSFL

[10] = tested on: primary patient FLT3 D835 AML circulating blasts; test: Colony-forming assay, primary patient FLT3-D835 AML blasts; type: cell-based, human
From the text: Primary AML blood samples and/or marrow aspirates were obtained on an IRB-approved protocol at the University of California, San Francisco. Informed consent was obtained in accordance with the Declaration of Helsinki. Mononuclear cells were purified by density centrifugation (Ficoll–Paque Plus, GE Healthsciences) before cryopreservation in 10% (vol/vol) DMSO or FCS (primary ITD and D835-mutant assays, Figure 3A–C) or immediate use in assays (Normal BM and SPB, Figure 3D–F). Normal BM and stimulated peripheral blood (SPB) samples were collected from donors at the UCSF oncology/hematology division. Cells were then suspended in MethoCult methylcellulose (Stem Cell Technologies, product no. H4435 Enriched, Canada) in 15-ml Falcon tubes, vigorously vortexed, bubbles settled over 10 min. Triplicates then plated via blunt-nosed syringe (1.1 ml each) into 3-cm dishes, avoiding bubble generation, and each dish placed in a larger 10-cm dish with water trough in an incubator (37°C, 5% CO2) for 13–14 days. Colonies were counted individually using traditional microscopy. CFU and BFU types reported separately (CFU-GEMM colonies counted as one of each).

[11] = target: T1, purified FLT3 WT (Homo sapiens, UniProt P36888); test: Radiolabeled purified kinase assay (Figure 1B)
T1 sequence (P36888 27-993): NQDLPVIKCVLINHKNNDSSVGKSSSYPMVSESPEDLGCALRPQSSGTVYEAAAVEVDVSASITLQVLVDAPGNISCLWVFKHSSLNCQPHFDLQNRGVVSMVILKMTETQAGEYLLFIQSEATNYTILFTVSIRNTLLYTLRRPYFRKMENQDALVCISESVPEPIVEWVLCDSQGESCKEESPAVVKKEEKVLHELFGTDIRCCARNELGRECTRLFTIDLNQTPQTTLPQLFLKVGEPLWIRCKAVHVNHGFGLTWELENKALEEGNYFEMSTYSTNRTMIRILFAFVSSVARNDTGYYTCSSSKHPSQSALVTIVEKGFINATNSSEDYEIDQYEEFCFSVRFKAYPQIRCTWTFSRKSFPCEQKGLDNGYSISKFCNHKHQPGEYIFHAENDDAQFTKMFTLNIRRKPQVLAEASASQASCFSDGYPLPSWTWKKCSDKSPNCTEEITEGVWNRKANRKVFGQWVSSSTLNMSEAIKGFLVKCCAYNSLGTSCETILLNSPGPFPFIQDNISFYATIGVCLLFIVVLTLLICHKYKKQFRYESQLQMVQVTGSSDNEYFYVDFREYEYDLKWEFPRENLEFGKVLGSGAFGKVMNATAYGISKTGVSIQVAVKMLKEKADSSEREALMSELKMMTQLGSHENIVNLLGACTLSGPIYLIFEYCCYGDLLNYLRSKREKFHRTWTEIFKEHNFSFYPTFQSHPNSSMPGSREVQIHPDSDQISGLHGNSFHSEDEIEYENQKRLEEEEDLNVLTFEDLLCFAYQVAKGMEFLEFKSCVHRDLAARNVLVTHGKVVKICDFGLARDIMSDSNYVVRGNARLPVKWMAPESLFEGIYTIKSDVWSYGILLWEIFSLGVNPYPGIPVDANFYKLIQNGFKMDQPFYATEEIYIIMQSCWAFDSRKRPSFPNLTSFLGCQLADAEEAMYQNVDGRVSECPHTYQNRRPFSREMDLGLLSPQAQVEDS

In the case of CC1NC(=O)c2c1c1c3ccccc3n(CCCN)c1c1[nH]c3ccccc3c21 (stereo not drawn) [Star 27], the “effect on zebrafish embryonic development / morphology” value [1] is reported as “no change in heart and tail morphology; also recorded: no noticeable morphological defects up to 10 μM”, the IC50 [2] is reported as 144 ± 97 nM and the IC50 [3] is reported as 41 ± 6 nM. The IC50 [4] was 18 ± 12 nM, the “effect on FLT3/ITD-induced mpo+ myeloid cells expansion” value [5] was “rescue of normal phenotype approaching that seen for AC220” and the IC50 [6] was 53 ± 31 nM. The IC50 [7] was > 5000 nM, the IC50 [8] was 1.02 µM and the IC50 [9] was 0.931 ± 0.109 µM. The inhibition at 1 µM ([10]; Homo sapiens, at 1000 nM, read-out: inhibition of colonies, FLT3-D835 (ITD−) blasts) was ~60%, the “raw colony numbers, FLT3 D835Y blasts” value ([10]; at 1,000 nM, ca. 120 for DMSO plates) was ~50 and the IC50 [11] was 0.0015 µM.
